Tests used:
[1] = target: T1, Cholinesterase (Equus caballus, UniProt P81908); assay: Inhibition of equine serum BuChE; format: cell-free
[2] = target: Acetylcholinesterase (Electrophorus electricus, UniProt O42275); assay: Inhibition of electric eel AChE at 100 uM
[3] = Permeability of compound by PAMPA-BBB assay; format: ADME; conditions: read-out: permeability
[4] = target: T1, Cholinesterase; assay: Mixed inhibition of equine serum BChE using butyrylthiocholine iodide as substrate; format: cell-free
[5] = target: Acetylcholinesterase (Homo sapiens) (UniProt P22303); assay: Inhibition of human recombinant AChE at 200 uM
[6] = target: Cholinesterase (Homo sapiens, UniProt P06276); assay: Inhibition of human BuChE at 10 uM
Sequence of Cholinesterase (Homo sapiens, UniProt P06276) (P06276 whole entry): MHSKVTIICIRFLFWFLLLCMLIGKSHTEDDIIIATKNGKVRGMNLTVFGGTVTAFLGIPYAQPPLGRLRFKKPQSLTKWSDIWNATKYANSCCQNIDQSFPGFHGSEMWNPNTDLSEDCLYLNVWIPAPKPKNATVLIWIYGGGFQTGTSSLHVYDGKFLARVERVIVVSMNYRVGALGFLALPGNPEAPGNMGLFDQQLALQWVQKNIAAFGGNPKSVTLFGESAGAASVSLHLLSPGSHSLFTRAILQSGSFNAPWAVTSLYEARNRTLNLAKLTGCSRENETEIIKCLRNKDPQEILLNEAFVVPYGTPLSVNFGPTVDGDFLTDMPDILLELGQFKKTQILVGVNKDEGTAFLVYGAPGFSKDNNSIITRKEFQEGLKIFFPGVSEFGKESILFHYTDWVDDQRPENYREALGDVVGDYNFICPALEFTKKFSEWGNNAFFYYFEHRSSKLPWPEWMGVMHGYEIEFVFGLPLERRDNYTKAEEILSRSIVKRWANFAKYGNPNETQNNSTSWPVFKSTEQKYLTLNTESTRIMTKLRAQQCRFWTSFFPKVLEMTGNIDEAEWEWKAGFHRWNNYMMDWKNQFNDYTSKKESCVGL

T1 sequence (P81908 whole entry): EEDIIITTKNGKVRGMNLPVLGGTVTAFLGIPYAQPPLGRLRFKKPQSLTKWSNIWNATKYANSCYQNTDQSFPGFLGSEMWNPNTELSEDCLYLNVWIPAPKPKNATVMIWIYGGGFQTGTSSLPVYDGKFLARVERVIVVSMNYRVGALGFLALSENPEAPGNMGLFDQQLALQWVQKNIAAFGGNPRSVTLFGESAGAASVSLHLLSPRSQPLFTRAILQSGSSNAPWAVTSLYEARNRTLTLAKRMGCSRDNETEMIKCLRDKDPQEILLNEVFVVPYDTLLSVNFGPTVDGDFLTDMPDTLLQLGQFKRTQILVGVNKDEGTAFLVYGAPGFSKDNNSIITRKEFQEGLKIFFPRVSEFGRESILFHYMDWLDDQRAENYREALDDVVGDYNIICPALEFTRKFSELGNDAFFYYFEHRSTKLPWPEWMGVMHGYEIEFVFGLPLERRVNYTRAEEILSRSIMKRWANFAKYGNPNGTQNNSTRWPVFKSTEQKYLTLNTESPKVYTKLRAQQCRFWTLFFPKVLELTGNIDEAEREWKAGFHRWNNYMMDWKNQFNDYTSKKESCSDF
Sequence of Acetylcholinesterase (O42275 whole entry): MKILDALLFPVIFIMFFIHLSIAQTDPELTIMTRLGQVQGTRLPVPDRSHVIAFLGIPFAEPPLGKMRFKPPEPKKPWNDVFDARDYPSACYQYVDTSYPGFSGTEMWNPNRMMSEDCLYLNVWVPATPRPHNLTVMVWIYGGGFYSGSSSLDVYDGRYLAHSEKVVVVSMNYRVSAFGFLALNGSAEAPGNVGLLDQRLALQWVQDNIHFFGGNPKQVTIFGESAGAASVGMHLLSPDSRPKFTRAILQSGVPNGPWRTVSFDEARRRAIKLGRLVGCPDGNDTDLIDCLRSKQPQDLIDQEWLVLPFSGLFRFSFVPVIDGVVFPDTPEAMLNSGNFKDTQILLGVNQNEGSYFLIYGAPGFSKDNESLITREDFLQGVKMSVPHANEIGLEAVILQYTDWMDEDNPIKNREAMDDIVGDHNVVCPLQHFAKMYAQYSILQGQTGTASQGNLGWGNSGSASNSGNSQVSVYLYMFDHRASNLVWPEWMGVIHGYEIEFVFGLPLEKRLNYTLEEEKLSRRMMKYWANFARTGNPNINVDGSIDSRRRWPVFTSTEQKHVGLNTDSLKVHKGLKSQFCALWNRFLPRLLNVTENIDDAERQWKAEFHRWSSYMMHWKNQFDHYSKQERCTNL
Sequence of Acetylcholinesterase (Homo sapiens) (P22303 whole entry): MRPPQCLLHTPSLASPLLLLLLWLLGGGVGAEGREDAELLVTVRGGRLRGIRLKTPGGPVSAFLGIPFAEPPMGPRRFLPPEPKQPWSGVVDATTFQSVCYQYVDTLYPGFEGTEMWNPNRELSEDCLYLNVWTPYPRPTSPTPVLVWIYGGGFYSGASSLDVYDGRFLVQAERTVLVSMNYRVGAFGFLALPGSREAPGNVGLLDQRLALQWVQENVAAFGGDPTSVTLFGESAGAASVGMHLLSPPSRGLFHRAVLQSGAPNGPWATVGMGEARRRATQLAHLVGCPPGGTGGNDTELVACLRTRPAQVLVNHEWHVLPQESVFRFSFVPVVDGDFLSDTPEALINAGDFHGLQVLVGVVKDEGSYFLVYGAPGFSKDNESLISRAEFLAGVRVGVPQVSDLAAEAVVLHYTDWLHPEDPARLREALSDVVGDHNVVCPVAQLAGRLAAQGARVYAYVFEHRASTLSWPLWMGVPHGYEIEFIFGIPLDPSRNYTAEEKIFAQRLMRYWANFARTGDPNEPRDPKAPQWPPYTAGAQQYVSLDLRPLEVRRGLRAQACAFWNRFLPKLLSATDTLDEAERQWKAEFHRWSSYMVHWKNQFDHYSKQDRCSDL

| Compound | IC50 [1] | IC50 [2] | Papp [3] | Ki [4] | inhibition [5] | IC50 [6] |
| --- | --- | --- | --- | --- | --- | --- |
| COc1ccccc1C1CCN(Cc2c(C)[nH]c3ccccc23)CC1 | 12.3 µM | Not Active | – | – | – | – |
| COc1ccc(-c2cc(C(=O)N3CCN(Cc4ccccc4)CC3)c3ccccc3n2)cc1 | 3.3 µM | Not Active | 1.28 ×10⁻⁶ cm/s | 5.2 µM | 8% | 2.4 µM |
